Results taken from publication PMC12298827, “Subchronic Toxicities of Four Per- and Polyfluoroalkyl Substances (PFASs) by Oral Exposure in Sprague–Dawley Rats” (Toxics, 2025).

System: male and female Sprague–Dawley rats
Assay: 90-day subchronic oral gavage toxicity study
Assay type: in vivo, rat
Settings: female
Method: Subchronic (90-day) studies were performed in accordance with current U.S. EPA’s Toxic Substances Control Act Good Laboratory Practice (GLP) Standards, with the following two general exceptions to the GLP guidelines: Analysis of the dose formulations was conducted according to RTI-approved Standard Operating Procedures, and corn oil (the vehicle) was not characterized (certificate of analysis from the vendor is available in the appendices to the final reports). Male and female Sprague–Dawley rats (five dose levels plus a control, n = 10/sex/dose group, corn oil vehicle dose volume of 3 mL/kg; oral gavage) were used in these studies, and the rats were euthanized on SD 91. The dose levels for PFHI were 0, 12.5, 25, 50, 100, and 200 mg/kg-day. The dose levels for MHFPK were 0, 18.8, 37.5, 75, 150, and 300 mg/kg-day. The dose levels for PFNAC were 0, 0.1, 0.3, 1.0, 3.0, and 10 mg/kg-day for male rats and 0, 0.3, 1.0, 3.0, 10, and 30 mg/kg-day for female rats. For CTFPA, the dose levels were 0, 1.9, 3.8. 7.5, 15, and 30 mg/kg-day for male rats and 0, 6.3, 12.5, 25, 50, and 100 mg/kg-day for female rats. For each PFAS, three batches of dosing solution were prepared. The time between the batch preparation of the dosing solutions ranged between 29 and 39 days. Blood samples were collected from all the rats at termination for serum chemistry, hematology, coagulation, and the analysis of the parent PFAS chemical in the plasma. In vivo data collection and further detail on the endpoints examined postmortem are described below.
The rats were observed twice daily for morbidity and mortality throughout the study period. At least once prior to randomization to test groups and weekly thereafter, the rats were physically examined, and bodyweights were obtained. Feed consumption was quantified weekly starting on SD 1.
Neurotoxicity was evaluated using the functional observational battery (FOB) and measuring locomotor activity (LMA) 2–4 h post dosing on SDs 78–80 and 80–84, respectively. For both the 14- and 90-day studies, an ophthalmologic examination was conducted prior to randomization and near the end of the study, using indirect ophthalmoscopy and slit–lamp biomicroscopy (as needed) after the administration of a mydriatic solution.
Hematology, biochemistry, and coagulation endpoints were measured at the termination of the study. A Siemens Advia 2120i hematology analyzer (Siemens Healthineers, Erlangen, Germany) was used to measure (or calculate) the parameters related to the complete blood count, leukocyte differential count, and reticulocyte count. The hematology parameters are listed and described in Table 2. The prothrombin time […] and activated partial thromboplastin time (APTT) were measured using an Instrumentation Laboratory (Bedford, MA, USA) ACL Elite Pro coagulation analyzer (laser–nephelometric centrifugal method).
At necropsy, the rats were visually examined for external abnormalities and organ weights (absolute and relative to the BW and brain weight), which were recorded (paired organs weighed together). The tissues were preserved in 10% neutral buffered formalin (NBF), except for the ocular tissues, testes, and epididymides, which were preserved in modified Davidson’s fixative and later transferred to 10% NBF. Bone marrow smears were prepared from the femurs, and the slides were air-dried, fixed in methanol, stained, and stored at room temperature for possible future evaluation. The preserved tissues were embedded in paraffin, sectioned, stained with hematoxylin and eosin, and examined by a board-certified veterinary pathologist.
Statistical analysis was performed using Provantis™ Version 10 or greater (Instem LSS, Limited; Stone, Staffordshire, UK). Differences among the treatment groups compared to the control were evaluated using one-way analysis of variance (ANOVA) if the underlying assumptions of a normal distribution (Shapiro–Wilk test) and the homogeneity of the variance (Levene’s test) were satisfied. […]

**Q.** How did the “% Diff, % BW Gain” value (75 mg/kg-day) turn out when `CC(=O)C(F)(F)C(F)(F)C(F)(F)F` [MHFPK, Methyl heptafluoropropyl ketone] was run?
**A.** The value was 4.28%.

**Q.** And the “% Diff, Total BW change” value (75 mg/kg-day)?
**A.** Its value is 4.15%.

**Q.** What about the “% Diff, Total Food Consumed” value (75 mg/kg-day) of the same compound?
**A.** Its value is 4.34%.

**Q.** And the A/G (75 mg/kg-day)?
**A.** Its A/G is 1.27±0.60 ratio.

**Q.** And the ABEOS (75 mg/kg-day)?
**A.** Its ABEOS is 0.090±0.027 K/µL.

**Q.** What about the ABNEUT (75 mg/kg-day) of the same compound?
**A.** Its ABNEUT is 1.005±0.441 K/µL.

**Q.** What about the ABRETi (75 mg/kg-day) of the same compound?
**A.** Its ABRETi is 193.71±46.37 10^9/L.

**Q.** What about the ALB (75 mg/kg-day) of the same compound?
**A.** The ALB was 4.45 ± 0.91 g/dL.

**Q.** What about the ALPi (75 mg/kg-day) of the same compound?
**A.** Its ALPi is 55.0±18.5 U/L.

**Q.** And the APTT (75 mg/kg-day)?
**A.** Its APTT is 18.68 s.

**Q.** And the BUN (75 mg/kg-day)?
**A.** Its BUN is 16.5 ± 2.1 mg/dL.

**Q.** And the CHOL (75 mg/kg-day)?
**A.** Its CHOL is 99.1 ± 21.5 mg/dL.

**Q.** What about the GLOB (75 mg/kg-day) of the same compound?
**A.** Its GLOB is 3.85 ± 0.96 g/dL.

**Q.** What about the GLUC (75 mg/kg-day) of the same compound?
**A.** The GLUC was 159.0 ± 32.6 mg/dL.

**Q.** What about the HCT (75 mg/kg-day) of the same compound?
**A.** The HCT was 45.88±1.35%.

**Q.** And the HGB (75 mg/kg-day)?
**A.** The HGB was 14.40 ± 0.50 g/dL.

**Q.** And the “Kidney Weight” value (75 mg/kg-day)?
**A.** The value was 1.91 g.

**Q.** And the “Kidney/Body Weight” value (75 mg/kg-day)?
**A.** The value was 0.59%.

**Q.** And the “Kidney/Brain Weight” value (75 mg/kg-day)?
**A.** The value was 96.8%.

**Q.** What about the “Liver Weight” value (75 mg/kg-day) of the same compound?
**A.** The value was 8.53 g.

**Q.** And the “Liver/Body Weight” value (75 mg/kg-day)?
**A.** Its value is 2.62%.

**Q.** And the “Liver/Brain Weight” value (75 mg/kg-day)?
**A.** Its value is 432%.

**Q.** What about the MPV (75 mg/kg-day) of the same compound?
**A.** The MPV was 8.55 ± 0.75 fL.

**Q.** And the PT (75 mg/kg-day)?
**A.** The PT was 14.74 s.

**Q.** What about the RBC (75 mg/kg-day) of the same compound?
**A.** Its RBC is 7.823±0.340 M/µL.

**Q.** What about the “Total BW change” value (75 mg/kg-day) of the same compound?
**A.** The value was 94.83 g.

**Q.** What about the “Total Food Consumed” value (75 mg/kg-day) of the same compound?
**A.** Its value is 1522 g.

**Q.** And the “% BW Gain” value (150 mg/kg-day)?
**A.** The value was 37.70%.

**Q.** And the “% Diff, % BW Gain” value (150 mg/kg-day)?
**A.** The value was -0.15%.

**Q.** What about the “% Diff, Total BW change” value (150 mg/kg-day) of the same compound?
**A.** Its value is -0.78%.

**Q.** And the “% Diff, Total Food Consumed” value (150 mg/kg-day)?
**A.** The value was 5.76%.

**Q.** What about the A/G (150 mg/kg-day) of the same compound?
**A.** The A/G was 1.14±0.34 ratio.

**Q.** What about the ABEOS (150 mg/kg-day) of the same compound?
**A.** The ABEOS was 0.093±0.035 K/µL.

**Q.** What about the ABNEUT (150 mg/kg-day) of the same compound?
**A.** The ABNEUT was 1.175±0.584 K/µL.

**Q.** And the ABRETi (150 mg/kg-day)?
**A.** The ABRETi was 193.46±35.08 10^9/L.

**Q.** And the ALB (150 mg/kg-day)?
**A.** Its ALB is 4.37 ± 0.51 g/dL.

**Q.** And the ALPi (150 mg/kg-day)?
**A.** The ALPi was 47.5±8.8 U/L.

**Q.** What about the APTT (150 mg/kg-day) of the same compound?
**A.** The APTT was 21.76 s.

**Q.** What about the BUN (150 mg/kg-day) of the same compound?
**A.** Its BUN is 18.2 ± 2.9 mg/dL.

**Q.** And the CHOL (150 mg/kg-day)?
**A.** The CHOL was 104.3 ± 20.7 mg/dL.

**Q.** What about the GLOB (150 mg/kg-day) of the same compound?
**A.** Its GLOB is 4.00 ± 0.81 g/dL.

**Q.** And the GLUC (150 mg/kg-day)?
**A.** Its GLUC is 166.7 ± 26.3 mg/dL.

**Q.** And the HCT (150 mg/kg-day)?
**A.** The HCT was 45.40±1.55%.

**Q.** And the HGB (150 mg/kg-day)?
**A.** The HGB was 14.27 ± 0.54 g/dL.

**Q.** And the “Kidney Weight” value (150 mg/kg-day)?
**A.** The value was 1.84 g.

**Q.** What about the “Kidney/Body Weight” value (150 mg/kg-day) of the same compound?
**A.** Its value is 0.57%.

**Q.** And the “Kidney/Brain Weight” value (150 mg/kg-day)?
**A.** The value was 95.8%.

**Q.** And the “Liver Weight” value (150 mg/kg-day)?
**A.** Its value is 8.84 g.

**Q.** What about the “Liver/Body Weight” value (150 mg/kg-day) of the same compound?
**A.** Its value is 2.74%.

**Q.** And the “Liver/Brain Weight” value (150 mg/kg-day)?
**A.** The value was 462%.

**Q.** What about the MPV (150 mg/kg-day) of the same compound?
**A.** Its MPV is 8.84 ± 0.70 fL.

**Q.** What about the PT (150 mg/kg-day) of the same compound?
**A.** Its PT is 14.99 s.

**Q.** And the RBC (150 mg/kg-day)?
**A.** Its RBC is 7.731±0.255 M/µL.

**Q.** And the “Total BW change” value (150 mg/kg-day)?
**A.** The value was 90.34 g.

**Q.** What about the “Total Food Consumed” value (150 mg/kg-day) of the same compound?
**A.** The value was 1542 g.

**Q.** And the “% BW Gain” value (300 mg/kg-day)?
**A.** Its value is 39.88%.

**Q.** What about the “% Diff, % BW Gain” value (300 mg/kg-day) of the same compound?
**A.** The value was 5.61%.

**Q.** What about the “% Diff, Total BW change” value (300 mg/kg-day) of the same compound?
**A.** The value was 5.11%.

**Q.** What about the “% Diff, Total Food Consumed” value (300 mg/kg-day) of the same compound?
**A.** Its value is 7.99%.

**Q.** And the A/G (300 mg/kg-day)?
**A.** The A/G was 1.01±0.13 ratio.

**Q.** And the ABEOS (300 mg/kg-day)?
**A.** The ABEOS was 0.085±0.022 K/µL.

**Q.** And the ABNEUT (300 mg/kg-day)?
**A.** Its ABNEUT is 1.220±0.506 K/µL.

**Q.** And the ABRETi (300 mg/kg-day)?
**A.** The ABRETi was 181.86±36.58 10^9/L.

**Q.** What about the ALB (300 mg/kg-day) of the same compound?
**A.** The ALB was 4.15 ± 0.28 g/dL.

**Q.** What about the ALPi (300 mg/kg-day) of the same compound?
**A.** Its ALPi is 54.1±22.2 U/L.

**Q.** And the APTT (300 mg/kg-day)?
**A.** Its APTT is 22.79 s.

**Q.** And the BUN (300 mg/kg-day)?
**A.** Its BUN is 17.6 ± 4.5 mg/dL.

**Q.** And the CHOL (300 mg/kg-day)?
**A.** Its CHOL is 107.5 ± 21.4 mg/dL.

**Q.** And the GLOB (300 mg/kg-day)?
**A.** The GLOB was 4.16 ± 0.64 g/dL.

**Q.** And the GLUC (300 mg/kg-day)?
**A.** The GLUC was 151.4 ± 28.6 mg/dL.

**Q.** What about the HCT (300 mg/kg-day) of the same compound?
**A.** The HCT was 48.02±1.91%.

**Q.** And the HGB (300 mg/kg-day)?
**A.** The HGB was 14.98 ± 0.42 g/dL.

**Q.** What about the “Kidney Weight” value (300 mg/kg-day) of the same compound?
**A.** The value was 1.94 g.

**Q.** What about the “Kidney/Body Weight” value (300 mg/kg-day) of the same compound?
**A.** The value was 0.59%.

**Q.** And the “Kidney/Brain Weight” value (300 mg/kg-day)?
**A.** The value was 97.1%.

**Q.** What about the “Liver Weight” value (300 mg/kg-day) of the same compound?
**A.** The value was 8.59 g.

**Q.** And the “Liver/Body Weight” value (300 mg/kg-day)?
**A.** Its value is 2.63%.

**Q.** And the “Liver/Brain Weight” value (300 mg/kg-day)?
**A.** The value was 430%.
